Laboratory results published in PubChem BioAssay (NCI).
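Exposure lasted 48 hours, with cells grown in 96-well plates and compounds tested at five concentrations. TGI marks complete inhibition of growth.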

Columns and labels:
Test in all cases: NCI tumour cell line growth inhibition, 48 h
PC-3 prostate = tested on: PC-3 prostate
HCT-15 colon = tested on: HCT-15 colon
SW-620 colon = tested on: SW-620 colon
DU-145 prostate = tested on: DU-145 prostate
HOP-62 NSCLC = tested on: HOP-62 NSCLC
TK-10 renal = tested on: TK-10 renal
OVCAR-5 ovarian = tested on: OVCAR-5 ovarian
IGROV1 ovarian = tested on: IGROV1 ovarian
RXF 393 renal = tested on: RXF 393 renal
CAKI-1 renal = tested on: CAKI-1 renal
ACHN renal = tested on: ACHN renal
SR leukemia = tested on: SR leukemia
SK-OV-3 ovarian = tested on: SK-OV-3 ovarian
HS 578T breast = tested on: HS 578T breast
NCI-H522 lung = tested on: NCI-H522 lung
786-0 renal = tested on: 786-0 renal
HL-60(TB) leukemia = tested on: HL-60(TB) leukemia
A549 NSCLC = tested on: A549 NSCLC
A498 renal = tested on: A498 renal
UACC-257 melanoma = tested on: UACC-257 melanoma
MDA-N = tested on: MDA-N
MDA-MB-231 breast = tested on: MDA-MB-231 breast
NCI/ADR-RES ovarian = tested on: NCI/ADR-RES ovarian
OVCAR-3 ovarian = tested on: OVCAR-3 ovarian
MALME-3M melanoma = tested on: MALME-3M melanoma
U251 CNS = tested on: U251 CNS
SNB-75 CNS = tested on: SNB-75 CNS
SK-MEL-5 melanoma = tested on: SK-MEL-5 melanoma
CCRF-CEM leukemia = tested on: CCRF-CEM leukemia
COLO 205 colon = tested on: COLO 205 colon
M14 melanoma = tested on: M14 melanoma
LOX IMVI melanoma = tested on: LOX IMVI melanoma
HT29 colon = tested on: HT29 colon
MCF7 breast = tested on: MCF7 breast
MDA-MB-435 = tested on: MDA-MB-435
EKVX NSCLC = tested on: EKVX NSCLC
T-47D breast = tested on: T-47D breast
NCI-H460 lung = tested on: NCI-H460 lung
UACC-62 melanoma = tested on: UACC-62 melanoma
SK-MEL-2 melanoma = tested on: SK-MEL-2 melanoma
NCI-H226 lung = tested on: NCI-H226 lung
HOP-92 NSCLC = tested on: HOP-92 NSCLC
SK-MEL-28 melanoma = tested on: SK-MEL-28 melanoma
KM12 colon = tested on: KM12 colon
RPMI-8226 leukemia = tested on: RPMI-8226 leukemia
HCT-116 colon = tested on: HCT-116 colon
SNB-19 CNS = tested on: SNB-19 CNS
K-562 leukemia = tested on: K-562 leukemia
SN12C renal = tested on: SN12C renal
OVCAR-8 ovarian = tested on: OVCAR-8 ovarian
SF-295 CNS = tested on: SF-295 CNS
OVCAR-4 ovarian = tested on: OVCAR-4 ovarian
SF-268 CNS = tested on: SF-268 CNS
SF-539 CNS = tested on: SF-539 CNS
NCI-H23 lung = tested on: NCI-H23 lung
BT-549 breast = tested on: BT-549 breast
UO-31 renal = tested on: UO-31 renal
MOLT-4 leukemia = tested on: MOLT-4 leukemia
HCC-2998 colon = tested on: HCC-2998 colon

For `N#CC1CNC(N)NC1N` (stereo not drawn), the TGI (PC-3 prostate) was > 100 µM, the TGI (HCT-15 colon) was > 100 µM and the TGI (SW-620 colon) was > 100 µM. The TGI (DU-145 prostate) was > 100 µM, the TGI (HOP-62 NSCLC) was > 100 µM and the TGI (TK-10 renal) was > 100 µM. For the same molecule, the TGI (OVCAR-5 ovarian) was > 100 µM, the TGI (IGROV1 ovarian) was > 100 µM and the TGI (RXF 393 renal) was > 100 µM. The TGI (CAKI-1 renal) was > 100 µM, the TGI (ACHN renal) was > 100 µM and the TGI (SR leukemia) was > 100 µM. The TGI (SK-OV-3 ovarian) was > 100 µM, the TGI (HS 578T breast) was > 100 µM and the TGI (NCI-H522 lung) was > 100 µM. For the same molecule, the TGI (786-0 renal) was > 100 µM, the TGI (HL-60(TB) leukemia) was > 100 µM and the TGI (A549 NSCLC) was > 100 µM. For the same molecule, the TGI (A498 renal) was > 100 µM, the TGI (UACC-257 melanoma) was > 100 µM and the TGI (MDA-N) was > 100 µM. For the same molecule, the TGI (MDA-MB-231 breast) was > 100 µM, the TGI (NCI/ADR-RES ovarian) was > 100 µM and the TGI (OVCAR-3 ovarian) was > 100 µM. The TGI (MALME-3M melanoma) was > 100 µM, the TGI (U251 CNS) was > 100 µM and the TGI (SNB-75 CNS) was > 100 µM. The TGI (SK-MEL-5 melanoma) was > 100 µM, the TGI (CCRF-CEM leukemia) was 34.6 µM and the TGI (COLO 205 colon) was > 100 µM. For the same molecule, the TGI (M14 melanoma) was > 100 µM, the TGI (LOX IMVI melanoma) was > 100 µM and the TGI (HT29 colon) was > 100 µM. For the same molecule, the TGI (MCF7 breast) was > 100 µM, the TGI (MDA-MB-435) was > 100 µM and the TGI (EKVX NSCLC) was > 100 µM. The TGI (T-47D breast) was > 100 µM, the TGI (NCI-H460 lung) was > 100 µM and the TGI (UACC-62 melanoma) was > 100 µM. The TGI (SK-MEL-2 melanoma) was > 100 µM, the TGI (NCI-H226 lung) was > 100 µM and the TGI (HOP-92 NSCLC) was > 100 µM. For the same molecule, the TGI (SK-MEL-28 melanoma) was > 100 µM, the TGI (KM12 colon) was > 100 µM and the TGI (RPMI-8226 leukemia) was > 100 µM. For the same molecule, the TGI (HCT-116 colon) was > 100 µM, the TGI (SNB-19 CNS) was > 100 µM and the TGI (K-562 leukemia) was > 100 µM. The TGI (SN12C renal) was > 100 µM, the TGI (OVCAR-8 ovarian) was > 100 µM and the TGI (SF-295 CNS) was > 100 µM. The TGI (OVCAR-4 ovarian) was > 100 µM, the TGI (SF-268 CNS) was > 100 µM and the TGI (SF-539 CNS) was > 100 µM. The TGI (NCI-H23 lung) was > 100 µM and the TGI (BT-549 breast) was > 100 µM.
`Cc1cc(O)c(C=O)c2c1C(=O)Oc1c(CO)c(O)c3c(c1O2)C(O)OC3=O` (stereo not drawn) was tested, and the TGI (PC-3 prostate) was > 100 µM, the TGI (HCT-15 colon) was > 100 µM and the TGI (SW-620 colon) was > 100 µM. The TGI (DU-145 prostate) was > 100 µM, the TGI (HOP-62 NSCLC) was > 100 µM and the TGI (TK-10 renal) was > 100 µM. For the same molecule, the TGI (UO-31 renal) was > 100 µM, the TGI (OVCAR-5 ovarian) was > 100 µM and the TGI (IGROV1 ovarian) was > 100 µM. For the same molecule, the TGI (RXF 393 renal) was > 100 µM, the TGI (CAKI-1 renal) was > 100 µM and the TGI (ACHN renal) was > 100 µM. For the same molecule, the TGI (SR leukemia) was 66.2 µM, the TGI (SK-OV-3 ovarian) was > 100 µM and the TGI (HS 578T breast) was > 100 µM. For the same molecule, the TGI (NCI-H522 lung) was > 100 µM, the TGI (786-0 renal) was > 100 µM and the TGI (HL-60(TB) leukemia) was 79.2 µM. For the same molecule, the TGI (A549 NSCLC) was > 100 µM, the TGI (A498 renal) was > 100 µM and the TGI (UACC-257 melanoma) was > 100 µM. The TGI (MDA-N) was > 100 µM, the TGI (MDA-MB-231 breast) was > 100 µM and the TGI (NCI/ADR-RES ovarian) was > 100 µM. The TGI (MOLT-4 leukemia) was 94.1 µM, the TGI (OVCAR-3 ovarian) was > 100 µM and the TGI (MALME-3M melanoma) was > 100 µM. The TGI (U251 CNS) was > 100 µM, the TGI (SNB-75 CNS) was > 100 µM and the TGI (SK-MEL-5 melanoma) was > 100 µM. For the same molecule, the TGI (CCRF-CEM leukemia) was > 100 µM, the TGI (COLO 205 colon) was > 100 µM and the TGI (M14 melanoma) was > 100 µM. The TGI (LOX IMVI melanoma) was > 100 µM, the TGI (HT29 colon) was > 100 µM and the TGI (MCF7 breast) was > 100 µM. The TGI (MDA-MB-435) was > 100 µM, the TGI (EKVX NSCLC) was > 100 µM and the TGI (T-47D breast) was > 100 µM. For the same molecule, the TGI (UACC-62 melanoma) was > 100 µM, the TGI (SK-MEL-2 melanoma) was > 100 µM and the TGI (NCI-H226 lung) was > 100 µM. The TGI (HOP-92 NSCLC) was > 100 µM, the TGI (SK-MEL-28 melanoma) was > 100 µM and the TGI (KM12 colon) was > 100 µM. The TGI (RPMI-8226 leukemia) was 54.5 µM, the TGI (HCC-2998 colon) was > 100 µM and the TGI (HCT-116 colon) was > 100 µM. The TGI (SNB-19 CNS) was > 100 µM, the TGI (SN12C renal) was > 100 µM and the TGI (OVCAR-8 ovarian) was > 100 µM. The TGI (SF-295 CNS) was > 100 µM, the TGI (OVCAR-4 ovarian) was > 100 µM and the TGI (SF-268 CNS) was > 100 µM. The TGI (SF-539 CNS) was > 100 µM, the TGI (NCI-H23 lung) was > 100 µM and the TGI (BT-549 breast) was > 100 µM.
